Experiment: Human HepG2 cell viability assay in 384 well format
Type: toxicity, cell-based
Parameters: dose 125 nL, time 70.5 hour; cytotoxicity at 70.5 h: concentration not given beside the values
Conditions: HepG2 cells, read-out: Inhibition

In order of falling cytotoxicity at 70.5 h:
1. CN(C)C(=O)c1cccc(CN2CCN(CCO)CC2)c1  38.5%
2. CCCC1CCCN(C(=O)CCn2cccn2)CC1 (stereo unspecified)  22.3%
3. CC(O)CN1CCN(Cc2cccc(C(=O)N3CCCCC3)c2)CC1 (stereo unspecified)  17.1%
4. O=C(NCCc1cccnc1)Nc1cc(C(F)(F)F)c[nH]c1=O  14.6%
5. O=c1[nH]c(-c2ccccc2F)nc2c1CCNC2  14.4%
6. CC(O)CN1CCC(CN(C)Cc2cccc(C(=O)N(C)C)c2)CC1 (stereo unspecified)  12.1%
7. COc1c(CNC2CCOc3c(Cl)cccc32)c(C(C)C)nn1C (stereo unspecified)  11.4%
8. NC(=O)C1CCN(C(=O)c2ccn(-c3ccc(F)cc3)n2)CC1  7.95%
9. CCc1ccc(C(CNC(=O)c2c(C)noc2C)N(C)C)cc1 (stereo unspecified)  5.58%
10. Cn1ncc2c(N3CCC3)nc(-c3ccncc3)nc21  4.72%
11. COc1c(CNCCNC(=O)c2cccc(C)c2)c(C)nn1C  3.54%
12. CCOC(=O)c1sc2ccsc2c1CNC(=O)COC  3.32%
13. COc1cc(CNCC(O)c2ccccc2)cc2c1OCO2 (stereo unspecified)  3.15%
14. CC(=O)N1CCCN(C(=O)c2ccc(Cn3ccccc3=O)o2)CC1  2.33%
15. Cc1cnn(CC2CCCN2C(=O)c2cccc3[nH]ncc23)c1 (stereo unspecified)  1.32%
16. CC(=O)N(Cc1ncc(C(C)C)o1)C1CCN(Cc2ccno2)C1 (stereo unspecified)  1.29%
17. O=C(NCCC1=CCCCC1)Nc1cc(C(F)(F)F)c[nH]c1=O  0.799%
18. O=C(Nc1ccc2ncsc2c1)N1CCCN([C@H]2COC[C@@H]2O)CC1  0.731%
19. COCc1ccccc1C(=O)N1CCCC1Cn1nc(C)cc1C (stereo unspecified)  0.418%
20. Cc1nc(C)n(C2CCCN(C(=O)c3ccc(OC(C)C)nc3)C2)n1 (stereo unspecified)  -0.207%
21. O=C(NCCc1ccco1)Nc1cc(C(F)(F)F)c[nH]c1=O  -0.302%
22. CC(C)(C)c1nc(C(C)(C)NC(=O)C2CC(=O)N(CC3CC3)C2)no1 (stereo unspecified)  -1.01%
23. COc1c(CNCCNC(=O)c2ccccc2)c(C)nn1C  -1.1%
24. c1ccc2c(N3CCCCC3Cn3cccn3)ncnc2c1 (stereo unspecified)  -1.4%
25. COc1ccccc1CC(=O)N1CCC(NCc2ccncc2)CC1  -1.58%
26. CC(C)c1nc(C2CCCN2C(=O)c2cnns2)no1 (stereo unspecified)  -1.79%
27. CC(C)CN1CCN(C(=O)CCn2cccn2)CC1  -1.87%
28. Nc1nc(CN2CCCC2Cn2cncn2)nc2ccccc12 (stereo unspecified)  -2.37%
29. O=C(c1ccc(Cn2ccccc2=O)o1)N1CCC2(CC1)OCCO2  -2.65%
30. O=C(Nc1ccc(CCN2CCC(O)CC2)cc1)C1CCCCC1  -2.92%
31. c1cnc(-c2nc(CN3CCCN(Cc4cccs4)CC3)cs2)nc1  -3.19%
32. O=C(Nc1ccc(CCN2CCOCC2)cc1)C1CCCC1  -3.35%
33. Cc1cc(C)n(CC2CCCN2C(=O)c2cccc3c2OCO3)n1 (stereo unspecified)  -3.49%
34. Cc1cc(C)n(CC2CCCN2C(=O)c2cccc3c2OCCO3)n1 (stereo unspecified)  -3.57%
35. O=C(NCCNc1ccccn1)Nc1cc(C(F)(F)F)c[nH]c1=O  -3.73%
36. CCc1nc(C2CCCN2Cc2nnc(C3CC3)o2)no1 (stereo unspecified)  -3.82%
37. Cc1nc(C)n(C2CCCN(C(=O)c3ccc(CN(C)C)cc3)C2)n1 (stereo unspecified)  -4.23%
38. Cc1ccc(CCNC(=O)Nc2cc(C(F)(F)F)c[nH]c2=O)o1  -4.56%
39. NC(=O)CCC1CCCN(c2ncnc3c2Cc2ccccc2OC3)C1 (stereo unspecified)  -4.64%
40. CCc1nnc(CN(CC)C(=O)C2CCC(=O)N(C3CCCC3)C2)o1 (stereo unspecified)  -4.66%
41. COc1c(CNCCNC(=O)c2ccc(C)c(F)c2)c(C)nn1C  -4.84%
42. CNc1nc(C)c(C(=O)N2CCCCC2CCc2ccccc2)s1 (stereo unspecified)  -5.18%
43. Cc1nc2n(n1)CC(NCc1nc(-c3ccccn3)no1)CC2 (stereo unspecified)  -5.58%
44. CC(C)N1CCN(C(=O)c2ccc(Cn3ccccc3=O)o2)CC1  -5.81%
45. CCc1nc(C)c(C(=O)NCCNC(=O)Cc2cccc(F)c2)s1  -6.24%
46. O=C(CCNc1ncccn1)Nc1cc(C(F)(F)F)c[nH]c1=O  -6.4%
47. CCc1[nH]c2c(CNC(=O)C3CCS(=O)(=O)CC3)cc(C)cc2c1C  -7%
48. CC(C)c1nc2c(n1C)CCN(Cc1nc(-c3ccco3)no1)C2  -7.27%
49. NC(=O)C1CCN(C(=O)NCc2csc(Br)c2)CC1  -7.32%
50. COCCc1noc(CN2CCOC(CN(C)C)C2)n1 (stereo unspecified)  -8.08%
51. COc1ccccc1CC(=O)N1CCC(NCc2ccc(C)o2)CC1  -11.2%
52. CCCc1nc(C(C)(C)NC(=O)C2CC(=O)N(C3CCCC3)C2)no1 (stereo unspecified)  -11.9%
53. CN(C)CC1CN(Cc2nc(-c3cccnc3)no2)CCO1 (stereo unspecified)  -12.3%
54. CCCc1nc(C(C)(C)NC(=O)C2CC(=O)N(CC)C2)no1 (stereo unspecified)  -13%
55. COc1cc(CNCC(O)c2ccccc2F)cc2c1OCO2 (stereo unspecified)  -14%
56. COc1c(CNC2CCc3ccccc32)c(C(C)C)nn1C (stereo unspecified)  -16.4%

Reference: ChEMBL document CHEMBL3507680, “University of Dundee, Gates Library screen for HepG2 cell viability”
